Data on 1 substance can be found in patent US6515002B2, “Compounds and compositions for treating C1s-mediated diseases and conditions” (3-Dimensional Pharmaceuticals, Inc., priority 1999, dated 2003).

In this experiment the target is T1, C1s (Homo sapiens, UniProt P09871).
T1 construct: purchased Enzyme Research, South Bend, Ind
T1 sequence (P09871 438-688 limits assumed): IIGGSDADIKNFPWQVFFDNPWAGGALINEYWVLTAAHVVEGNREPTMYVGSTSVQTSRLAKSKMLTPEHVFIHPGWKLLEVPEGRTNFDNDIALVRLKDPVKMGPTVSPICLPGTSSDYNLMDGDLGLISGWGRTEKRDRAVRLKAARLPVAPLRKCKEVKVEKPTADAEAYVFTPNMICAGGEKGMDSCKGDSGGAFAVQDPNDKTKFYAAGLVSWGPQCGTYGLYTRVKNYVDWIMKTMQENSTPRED
T1 sequence (P09871 16-437 partner limits assumed): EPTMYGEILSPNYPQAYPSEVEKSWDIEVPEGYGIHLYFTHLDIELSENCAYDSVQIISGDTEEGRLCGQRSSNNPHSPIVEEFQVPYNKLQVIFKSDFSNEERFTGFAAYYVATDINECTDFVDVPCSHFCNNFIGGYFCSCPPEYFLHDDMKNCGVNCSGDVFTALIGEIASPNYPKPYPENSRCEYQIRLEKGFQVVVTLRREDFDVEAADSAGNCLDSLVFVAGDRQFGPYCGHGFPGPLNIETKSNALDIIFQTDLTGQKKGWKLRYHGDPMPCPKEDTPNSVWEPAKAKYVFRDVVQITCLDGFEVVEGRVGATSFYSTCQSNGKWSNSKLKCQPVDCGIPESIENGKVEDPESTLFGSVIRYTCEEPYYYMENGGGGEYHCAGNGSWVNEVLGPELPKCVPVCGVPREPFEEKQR
Kind of experiment: In vitro Inhibition of C1s (Ki determination, Z-Gly-Arg-5-Bzl/DTNB hydrolysis). It is filed as biochemical. Particulars: purified activated C1s 7.3 nM, substrate Z-Gly-Arg-5-Bzl 45 μM, DTNB 200 μM, pH 7.5, 37° C. The protocol:
Reagents: All buffer salts were obtained from Sigma Chemical Company (St. Louis, Mo.), and were of the highest purity available.
Ki Determinations: All assays are based on the ability of the test compound to inhibit the Cis catalyzed hydrolysis of the substrate Z-Gly-Arg-5-Bzl via an intermediate reaction with 5,5′-dithio-bis(2-nitrobenzoic acid) (DTNB). [Complement C1s is available commercially from Enzyme Research, South Bend, Ind.] In a typical Ki determination, substrate is prepared in DMSO, and diluted into an assay buffer consisting of 50 mM HEPES, 200 mM NaCl, pH 7.5. […] In general, substrate concentrations are lower than the experimentally determined value for Km. […]
In a typical Ki determination, into each well of a 96-well plate is pipetted 280 μL of substrate solution, 10 μL of test compound solution, and the plate allowed to thermally equilibrate at 37° C. for 15 minutes. Reactions were initiated by the addition of a 10 μL aliquot of the enzyme and the absorbance increase at 405 nm is recorded for 5 minutes in a Molecular Devices plate reader. […] The ratio of the velocity (rate of change in absorbance as a function of time) for a sample containing no test compound is divided by the velocity of a sample containing test compound, and is plotted as a function of test compound concentration. The data are fit to a linear regression, and the value of the slope of the line calculated. […]

In turn, “4-[4-(3-{[(2,4-Difluorophenyl)sulfonyl]amino}phenyl)(1,3-thiazol-2-yl)]-5-methylthiophene-2-carboxamidine [Example 290]” yielded a Ki of 30 nM.
